# Assay results from US20090305955A1, “Cyclopeptide with Anti-Cancer Activity Derived from Collagen Type IV” (priority 2006, published 2009).
# Where a SMILES comes first, the peptide text is derived from it.
# How the values were obtained:
# Format in all cases: cell-based, human
# [1] = system: HMEC-1 cells; assay: Formation of capillary pseudotubes on Matrigel; conditions: 24 hours
# Experimental: FIG. 17: In vitro anti-angiogenic activity of cyclopeptide YSNSG (SEQ ID NO: 3). A: microscope photographs of the network of capillary pseudotubes of HMEC-1 endothelial cells after 24 hours incubation in the absence of peptide (control; 1), with the cyclopeptide YSNSG (SEQ ID NO: 3) at a concentration of 10 or 20 μM (2 and 3 respectively) or with the linear heptapeptide CNYYSNS (SEQ ID NO: 5) (20 μM) (positive control; 4). B: quantification of number of pseudotubes in photographs in A;
# (§1) The in vitro anti-angiogenic activity of the cyclopeptide YSNSG (SEQ ID NO: 3) was measured on the formation of capillary pseudotubes by endothelial HMEC-1 or HUVEC cells deposited on a Matrigel mat.
# A solution of Matrigel (ECM gel: 10 mg/ml) was deposited in a sterile manner in 24-well plates (Nunclon) in an amount of 250 μl per well onto piled ice. Gel formation was obtained by incubating the plate at 37° C. for 30 min. HMEC-1 cells or HUVEC cells at sub-confluence were detached from their plastic culture support by adding trypsin/EDTA then taken up into suspension in the culture medium for endothelial cells and diluted to a concentration of 2×10^5 cells per ml. 100 μl volumes of this cell suspension were deposited on the gel surface. […] Quantification was carried out using image analysis software.
# [2] = system: HUVEC cells; assay: Formation of capillary pseudotubes on Matrigel; conditions: 20 μM
# Experimental: as §1
# A solution of Matrigel (ECM gel: 10 mg/ml) was deposited in a sterile manner in 24-well plates (Nunclon) in an amount of 250 μl per well onto piled ice. Gel formation was obtained by incubating the plate at 37° C. for 30 min. HMEC-1 cells or HUVEC cells at sub-confluence were detached from their plastic culture support by adding trypsin/EDTA then taken up into suspension in the culture medium for endothelial cells and diluted to a concentration of 2×10^5 cells per ml. 100 μl volumes of this cell suspension were deposited on the gel surface. After incubating for 1 hour at 37° C. to allow cell adhesion, the various peptides were added in solution to 400 μl of the culture medium (final concentration 10 or 20 μM). Pseudotube formation was observed under the microscope and photographed, after incubating for 24 hours. Quantification was carried out using image analysis software.
# [3] = system: HUVEC cells; assay: Scar wounding technique (artificial wound model); conditions: 48 h incubation, 20 μM
# Experimental: FIG. 18: In vitro inhibition of HUVEC cell migration in the presence of YSNSG (SEQ ID NO: 3) cyclopeptide. Microscope photographs of artificial wounds produced on a monolayer of endothelial cells at T0 and T48h in the absence of peptide (control) or in the presence of 20 μM of YSNSG (SEQ ID NO: 3) cyclopeptide;
# 1×10^5 endothelial cells were seeded into 24-well plates and incubated for 24 hours at 37° C. A wound was made in the cellular monolayer at the centre of the well using a 200 μl cone point. The cells were washed with PBS to eliminate cell debris then incubated in the presence or absence of the cyclopeptide YSNSG (SEQ ID NO: 3). Closing of the wound, a witness to the migratory properties of the cells, was observed under the microscope and photographed after 48 hours incubation.
# [4] = system: HUVEC cells; assay: HUVEC cell proliferation
# [5] = system: u-PA; assay: Zymography in the presence of gelatine and plasminogen, HUVEC conditioned medium; conditions: 20 μM
# Experimental: FIG. 20: Effect of YSNSG (SEQ ID NO: 3) cyclopeptide on the secretion of plasminogen activators. The secretion of u-PA and t-PA was analyzed by zymography in the presence of gelatine and plasminogen (A) in a medium conditioned by HUVEC cells in the absence (control) or in the presence of 20 μM of cyclopeptide YSNSG (SEQ ID NO: 3). Quantification was carried out using Bio 1D software (B);
# To determine the plasminogen activities, conditioned media of UACC-903 cells were analyzed by polyacrylamide gel electrophoresis in the presence of SDS and containing 1 mg/ml of gelatine and 10 μg/ml of plasminogen. After electrophoresis, the gels were incubated overnight at ambient temperature in a 100 mM glycine, 5 mM EDTA, pH 8.0 buffer.
# [6] = system: u-PAR; assay: Western blot of u-PAR, HUVEC cells; conditions: 20 μM
# Experimental: FIG. 21: Effect of YSNSG (SEQ ID NO: 3) cyclopeptide on the expression of the u-PA receptor: u-PAR by HUVEC cells. The secretion of u-PAR was analyzed by Western blot (A) in a medium conditioned by HUVEC cells in the absence (control) or in the presence of 20 μM of the cyclopeptide YSNSG (SEQ ID NO: 3). Quantification was carried out using Bio 1D software (B);
# The samples underwent 10% polyacrylamide gel electrophoresis in the presence of 0.1% SDS then were transferred onto Immobilon-P membranes (Millipore, St Quentin en Yvelines, France). The membranes were saturated with 5% freeze dried skimmed milk, Tween 20 0.1% in a 50 mM Tris-HCl, 150 mM NaCl buffer, pH 7.5 (TBS) for 2 hours at ambient temperature. The membranes were then incubated overnight at 4° C. with anti-MMP-14, anti-PAI-1 and anti-u-PAR antibodies then incubated for one hour at ambient temperature with a secondary antibody (anti-IgG) conjugated with peroxidase. The immune complexes were visualized with an ECL chemoluminescence detection kit.
# [7] = system: phospho-FAK; assay: Phospho-FAK immunolabelling, HUVEC cells; conditions: 20 μM, 48 h
# Experimental: FIG. 22: Effect of YSNSG (SEQ ID NO: 3) cyclopeptide on the organization of the cytoskeleton of HUVEC cells. The cells were cultivated on glass slides in the absence (control) or in the presence of 20 μM of YSNSG (SEQ ID NO: 3) cyclopeptide. After 48 h of incubation, the cells were fixed, permeabilized, incubated with phalloidin (A) or with an anti-Phospho-FAK antibody (B) then with Hoechst-33342. The slides were observed under a confocal microscope;
# (§2) The cells were seeded onto sterile glass slides placed in 24-well plates (2×10^4 cells/well) in a suitable medium containing 5% serum in the presence or absence of YSNSG (SEQ ID NO: 3) cyclopeptide. After 24 and 48 hours incubation, the cells were fixed for 15 minutes in methanol. Three washes of 5 minutes in TBS-T were carried out, then the cells were incubated for 30 minutes at ambient temperature in a saturation solution (TBS-T containing 3% BSA). The cells were then incubated for 2 hours at ambient temperature in the presence of primary antibody diluted to 1/100 in TBS-T containing 3% BSA.
# [8] = system: β1 sub-unit of integrin; assay: β1 integrin immunolabelling, HUVEC cells; conditions: 20 μM, 48 h
# Experimental: FIG. 23: Effect of YSNSG (SEQ ID NO: 3) cyclopeptide on the distribution of β1 integrin subunits on the surface of HUVEC cells. The cells were cultivated on glass slides in the absence (control) or in the presence of 20 μM of YSNSG (SEQ ID NO: 3) cyclopeptide. After 48 h of incubation, the cells were fixed and incubated in the presence of antibodies directed against the β1 integrin subunit. The slides were observed using a confocal microscope.
# as §2
smiles,measurement,setting,value
"NC(=O)CC1NC(=O)C(CO)NC(=O)C(Cc2ccc(O)cc2)NC(=O)CNC(=O)C(CO)NC1=O (stereo not drawn) [cyclopeptide YSNSG, cyclopeptide YSNSG (SEQ ID NO: 3)] (cyclo(GYSNS); configuration not given here)",reduces the formation of pseudotubes,[1]; 10 μM,40%
same,reduces the formation of pseudotubes,[1]; 20 μM,up to 70%
same,inhibition of capillary pseudotube formation,[2],45%
same,inhibition of the migration of the HUVEC cells,[3],83%
same,cell proliferation of HUVEC cells,[4],did not modify
same,reduction in the production of u-PA,[5],−27%
same,reduction in the production of u-PAR,[6],−49%
same,expression of the phosphorylated form of focal adhesion kinase (phospho-FAK),[7],reduction
same,Expression of the β1 sub-unit of integrin at the cellular periphery,[8],enhanced
